# Columns and labels:
# [1] = test system: human hair follicle dermal papilla cells; experiment: Proliferation of human hair follicle dermal papilla cells (MTT method); type: cell-based; conditions: peptide 0.5 uM, 5 uM or 50 uM, serum-free medium, 72 hours; FIG. 1
# Experimental: The promoting effect of the peptide consisting of the amino acid sequence of SEQ ID NO: 1 on the proliferation of hair follicle cells was to be confirmed. In detail, human hair follicle dermal papilla cells were seeded in a 96-well plate at a density of 5×10^3 cells/well, and cultured for 16 hours. The culture medium was replaced with a serum-free medium, and the peptide was added thereto at a concentration of 0.5 uM, 5 uM, or 50 uM, and the cells were cultured for 72 hours. Here, as a positive control group, 5 uM of Minoxidil which is used as a hair loss treatment was treated. Afterwards, an MTT method was performed to measure the cell proliferation. In detail, 4 ug/ml of 3-(4,5-dimethylthiazol-2-yl)-2,5-diphenyltetrazolium bromide (MTT) was treated, and 4 hours later, DMSO was treated thereon to dissolve formazan. Then, the absorbance at 560 nm was measured by using a spectrophotometer.
# ERK = experiment: Western blotting of phosphorylated ERK in dermal papilla cells; type: cell-based, human; conditions: peptide 0.5 uM, 5 uM or 50 uM, serum-free medium, 30 minutes; FIG. 2
# Experimental: (§1) The effect of the peptide consisting of the amino acid sequence of SEQ ID NO: 1 on the activation of proliferation-related factors in hair follicle cells was to be confirmed. In detail, human dermal papilla cells were seeded in a 6-well plate at a density of 4×10^5 cells/well, and cultured for 16 hours. The culture medium was replaced with a serum-free medium, and the peptide was added thereto at a concentration of 0.5 uM, 5 uM, or 50 uM, and the cells were cultured for 30 minutes. Here, as a positive control group, 5 uM of Minoxidil was treated. Cell lysates were prepared by harvesting the cell, and then, western blotting was performed with respect to phosphorylated ERK and phosphorylated AKT by using p-ERK antibodies and p-AKT antibodies (Santacruz biotechnology, USA).
# AKT = experiment: Western blotting of phosphorylated AKT in dermal papilla cells; type: cell-based, human; conditions: peptide 0.5 uM, 5 uM or 50 uM, serum-free medium, 30 minutes; FIG. 2
# Experimental: as §1
# β-catenin = experiment: Western blotting of nuclear β-catenin in dermal papilla cells; type: cell-based, human; conditions: peptide 0.5 uM, 5 uM or 50 uM, serum-free medium, 24 hours, nuclear proteins; FIG. 3
# Experimental: The effect of the peptide consisting of the amino acid sequence of SEQ ID NO: 1 on the activation of a proliferation mechanism of hair follicle cells was to be confirmed. In detail, human dermal papilla cells were seeded in a 6-well plate at a density of 4×10^5 cells/well, and cultured for 16 hours. The culture medium was replaced with a serum-free medium, and the peptide was added thereto at a concentration of 0.5 uM, 5 uM, or 50 uM, and the cells were cultured for 24 hours. Here, as a positive control group, 5 uM of Minoxidil was treated. The cells were harvested and nuclear proteins thereof were isolated by using a nuclear protein extraction kit (Merck, USA). Then, western blotting was performed with respect to β-catenin which is a factor related to proliferation of the dermal papilla cells by using β-catenin antibodies (Santacruz biotechnology, USA).
# DKK-1 = experiment: Western blotting of DKK-1 expression in DHT-stimulated dermal papilla cells; type: cell-based, human; conditions: DHT 10 ug/ml as stimulator, peptide 0.5 uM, 5 uM or 50 uM, 24 hours; FIG. 4
# Experimental: The inhibitory effect of the peptide consisting of the amino acid sequence of SEQ ID NO: 1 on the expression of DKK-1, which is a hair loss-related factor, in hair follicle cells was to be confirmed. In detail, human dermal papilla cells were seeded in a 6-well plate at a density of 4x10^5 cells/well, and cultured for 16 hours. After the culture medium was replaced with a serum-free medium, dihydrotestosterone (DHT) as a stimulator was added thereto at a concentration of 10 ug/ml while peptide was added thereto at a concentration of 0.5 uM, 5 uM, or 50 uM. Then, the cells were cultured for 24 hours. The cells were harvested and nuclear proteins thereof were isolated by using a nuclear protein extraction kit. Then, western blotting was performed by using DKK-1 antibodies (Santacruz biotechnology, USA). Here, DHT is known as a hair loss hormone that increases the expression of DKK-1, which is a hair loss-inducible factor, by activating an androgen receptor.
# TGFβ-1 = experiment: PCR of TGFβ-1 expression in dermal papilla cells; type: cell-based, human; conditions: peptide 0.5 uM, 5 uM or 50 uM, serum-free medium, 24 hours, PCR with GAPDH; FIG. 5
# Experimental: The inhibitory effect of the peptide consisting of the amino acid sequence of SEQ ID NO: 1 on the expression of TGFβ-1, which is a hair loss-related factor, in hair follicle cells was to be confirmed. In detail, human dermal papilla cells were seeded in a 6-well plate at a density of 4x10^5 cells/well, and cultured for 16 hours. The culture medium was replaced with a serum-free medium, and the peptide was added thereto at a concentration of 0.5 uM, 5 uM, or 50 uM, and the cells were cultured for 24 hours. Here, as a positive control group, 5 uM of Minoxidil was treated. After the cells were harvested, RNA was extracted therefrom and used for synthesis of cNDA by using a cDNA synthesis kit and PCR pre-mix. TGFβ-1, as an androgen-inducible factor in hair follicle cells, is known to be related to hair loss.
substance,measurement,setting,value
WQNMRL [SEQ ID NO: 1],"proliferation of human dermal papilla cells (MTT, absorbance at 560 nm)",[1],promoted the proliferation of human dermal papilla cells
same,phosphorylation of ERK,ERK,induced
same,phosphorylation of AKT,AKT,induced
same,movement of β-catenin from the cytoplasm to the nucleus,β-catenin,increased
same,expression of DKK-1,DKK-1,inhibit the expression of DKK-1
same,expression of TGFβ-1,TGFβ-1,inhibit the expression of TGFβ-1

# From patent US12414907B2, “Peptide having hair growth promoting activity and use thereof” (CAREGEN CO., LTD., priority 2019, dated 2025)
